According to patent US20180055868A1, “METHODS AND COMPOSITIONS FOR STIMULATING BONE REGENERATION” (New York University, priority 2012, published 2018):

What was measured:
[1] = tested on: trephined calvarium bone defect; assay: Trephined 3 mm calvarial defect, collagen matrix reinjected daily, microCT bone regeneration (Example 2); type: in vivo, mice; conditions: 8 weeks post trephination; for concentration achieving maximal effect on bone regeneration / dose dependence of effect on bone regeneration: FIG. 3; for effect on bone regeneration: microCT, FIG. 2
Procedure: In FIG. 2B, the percentage bone regeneration is calculated as the percent of the original defect that was now filled with bone.
(§1) A 3 mm portion of the calvarium was trephined with a drill followed by implantation of a collagen matrix soaked in either a vehicle or a pharmacologic agent and/or receptor antagonists to promote bone regeneration. The matrix was reinjected daily with the agent for periods ranging from 2-8 weeks prior to harvest of the mice and examination of the calvaria. […] Experiments were performed with specific agonists and antagonists at varying doses, and specific receptor agonists were tested on corresponding knockout mice to better confirm the role of the indicated receptor.
(§2) Some of the calvaria were decalcified, and histochemical and immunohistochemical staining and microscopic analyses were performed. Other calvaria were cleaned of adherent tissue and subject to microCT analysis for bone defect size and percent regeneration measures.

[2] = tested on: osteoblasts and osteoclasts in the regenerating bone; assay: Histochemical and immunohistochemical staining of regenerating calvarial bone sections; type: in vivo, mice; conditions: for TRAP stained osteoclasts in the regenerating bone / alkaline phosphatase positive osteoblasts in the regenerating bone / RANK+ cells in the regenerating bone / RANKL+ cells in the regenerating bone / osteoprotegerin+ cells in the regenerating bone: cells/hpf vs control; for TRAP stained osteoclasts in the regenerating bone / alkaline phosphatase positive osteoblasts in the regenerating bone: FIG. 7; for bone formation shown histologically: histology of calvaria, FIG. 9; for RANK+ cells in the regenerating bone / RANKL+ cells in the regenerating bone / osteoprotegerin+ cells in the regenerating bone: immunohistochemistry, FIG. 8
Text: Shown in FIG. 7A are representative medium powered fields of calvarial sections stained immunohistochemically for alkaline phosphatase (left hand column, a marker for osteoblasts). Shown in the next column of figures are sections stained histochemically for tartrate resistant acid phosphatase (a marker for osteoclasts). Arrows in these figures point to osteoblasts (first column) or osteoclasts (second column).
Paraffin embedded sections are stained immunohistochemically for RANK, RANKL or osteoprotegerin. Slides are imaged and positive cells (brown) are enumerated in three fields. Shown on the left are representative medium power sections of immunohistochemcically stained sections.
Staining of decalcified bone sections for osteoclasts (TRAP staining) and osteoblasts (alkaline phosphatase staining) was performed. Immunostaining for other markers of osteoclast (cathepsin K) lineage and other molecules of interest (e.g. semaphorin 4D, plexin-B1, nuclear b-catenin) were performed.
as §2

[3] = tested on: trephined calvarium bone defect in A2BKO mice; assay: Calvarial defect bone regeneration in A2B receptor knockout (A2BKO) mice; type: in vivo; conditions: 8 weeks post trephination, FIG. 5
Procedure: as §1

[4] = tested on: peripheral blood monocytes; conditions: effect mediated by adenosine acting at A1 receptors; cited from earlier work
A3 adenosine receptor = target: T1, A3 adenosine receptor (Homo sapiens, UniProt P0DMS8); conditions: cited from earlier work
T1 sequence (P0DMS8 1-318): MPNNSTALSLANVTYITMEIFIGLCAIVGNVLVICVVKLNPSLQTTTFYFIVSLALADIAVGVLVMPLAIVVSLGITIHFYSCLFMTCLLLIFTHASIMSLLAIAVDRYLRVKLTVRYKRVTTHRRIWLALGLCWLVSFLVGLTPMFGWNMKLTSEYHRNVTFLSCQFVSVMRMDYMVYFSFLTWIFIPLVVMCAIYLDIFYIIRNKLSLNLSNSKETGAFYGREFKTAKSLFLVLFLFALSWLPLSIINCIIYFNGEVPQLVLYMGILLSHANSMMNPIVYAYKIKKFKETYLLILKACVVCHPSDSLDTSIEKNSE

defect in mouse calvaria = assay: 3 mm mouse calvarial bone defect with drug-soaked collagen matrix, microCT (Example 1); type: in vivo, C57B6 mice; conditions: collagen matrix in 3 mm calvarial defect, 8 weeks
Procedure: . Under general anesthesia a 3 mm in diameter defect is drilled into the skull of C57B6 mice. […]. The matrix is then reinjected with 100 μl of these agents daily for 8 weeks before harvest. […] FIG. 1B represents the percentage bone regeneration calculated as the percent of the original defect that was now filled with bone. Shown are the means (+SD) of results obtained in 3 animals for each condition. Results were analyzed by ANOVA. ***p<0.001
A 3 mm in diameter defect was created in mouse calvaria into which was fit a collagen matrix. […].

SMILES	concentration achieving maximal effect on bone regeneration [1]	dose dependence of effect on bone regeneration [1]	effect on bone regeneration [1]	TRAP stained osteoclasts in the regenerating bone [2]	alkaline phosphatase positive osteoblasts in the regenerating bone [2]	bone formation shown histologically [2]	RANK+ cells in the regenerating bone [2]	RANKL+ cells in the regenerating bone [2]	osteoprotegerin+ cells in the regenerating bone [2]	also measured
N#Cc1c(N)nc(SCC(N)=O)c(C#N)c1-c1ccc(OCC2CC2)cc1 [BAY606583]	1 µM	dose-dependent	stimulate bone regeneration	–	–	–	–	–	–	–
CCNC(=O)[C@H]1O[C@@H](n2cnc3c(N)nc(NCCc4ccc(CCC(=O)O)cc4)nc32)[C@H](O)[C@@H]1O [CGS21680]	1 µM	dose-dependent	stimulate bone regeneration	reduce	increase	bone formation	reduction	reduction	increase	effect of the agent on bone regeneration upon deletion of the A2B receptor [3]: reverses the effect
CCCn1c(=O)c2[nH]c(C3CCCC3)nc2n(CCC)c1=O [DPCPX, 8-Cyclopentyl-1,3-dipropylxanthine]	1 µM	dose-dependent	stimulate bone regeneration	reduce	increase	bone formation	reduction	reduction	increase	effect of the agent on bone regeneration upon deletion of the A2B receptor [3]: reverses the effect
CN(Cc1cnc2nc(N)nc(N)c2n1)c1ccc(C(=O)N[C@@H](CCC(=O)O)C(=O)O)cc1 [Methotrexate]	–	–	–	–	–	–	–	–	–	giant cell formation [4]: increases giant cell formation
Nc1nc(NCCc2ccc(O)cc2)nc2nc(-c3ccco3)nn12 [ZM241385]	–	–	–	–	–	–	–	–	–	effect of antagonist on bone regeneration promoted by dipyridamole ([1]; FIG. 4): blocks the effect; effect of antagonist on bone regeneration promoted by the A2A agonist CGS21680 ([1]; FIG. 4): blocks the effect
CNC(=O)[C@H]1O[C@@H](n2cnc3c(NCc4cccc(I)c4)ncnc32)[C@H](O)[C@@H]1O [adenosine A3 receptor agonist]	1 µM	dose-dependent	no effect	–	–	–	–	–	–	–
Nc1ncnc2c1ncn2[C@@H]1O[C@H](CO)[C@@H](O)[C@H]1O [adenosine]	–	–	–	–	–	–	–	–	–	affinity for adenosine (A3 adenosine receptor): low-micromolar range
OCCN(CCO)c1nc(N2CCCCC2)c2nc(N(CCO)CCO)nc(N3CCCCC3)c2n1 [dipyridamole]	1 µM	dose-dependent	promotes bone regeneration	reduce	increase	bone formation	reduction	reduction	increase	effect on bone regeneration (defect in mouse calvaria): stimulates bone regeneration
